Results: PubChem BioAssay AID250 (DTP/NCI, 2004)
Where “and” joins values, the source holds several entries; their conditions need not be identical. Identical values can stand only once. Toxic doses and inconclusive results are not listed. The calls were made as follows: active = survival T/C of 150% or more; inactive = T/C below 125% in these data.

Tested on: BDF1 mice, L1210 leukemia sc, survival T/C
Experiment: NCI In Vivo Anticancer Drug Screen. Data for tumor model L1210 Leukemia (subcutaneous) in B6D2F1 (BDF1) mice
Settings: endpoint: median survival time, higher = longer survival
Procedure, shortened: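 Expressed as T/C: measurement in compound-treated, tumor-bearing mice relative to vehicle-treated control mice, based on survival or tumor size.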

Measured: T/C

CC(=O)NC(CCC(=O)C=[N+]=N)C(=O)O (stereo unspecified)
inactive: dose: 0.07 mg/kg/injection, schedule: Q#A X Z (sc), vehicle: water 100 % of control | dose: 0.11 mg/kg/injection, schedule: Q#A X Z (sc), vehicle: water 109 % of control | dose: 0.14 mg/kg/injection, schedule: Q01DX Z (sc), vehicle: water 95 % of control | dose: 0.19 mg/kg/injection, schedule: Q01DX Z (sc), vehicle: water 110 % of control | dose: 0.19 mg/kg/injection, schedule: Q#A X Z (sc), vehicle: water 109 % of control | dose: 0.24 mg/kg/injection, schedule: Q01DX Z (sc), vehicle: water 108 % of control | dose: 0.31 mg/kg/injection, schedule: Q01DX Z (sc), vehicle: water 109 % of control and 110 % of control | dose: 0.31 mg/kg/injection, schedule: Q#A X Z (sc), vehicle: water 122 % of control | dose: 0.4 mg/kg/injection, schedule: Q01DX Z (sc), vehicle: water 116 % of control | dose: 0.47 mg/kg/injection, schedule: Q01DX Z (sc), vehicle: water 120 % of control | dose: 0.52 mg/kg/injection, schedule: Q01DX Z (sc), vehicle: water 109 % of control and 113 % of control | dose: 0.52 mg/kg/injection, schedule: Q02DX Z (sc), vehicle: water 100 % of control | dose: 0.86 mg/kg/injection, schedule: Q02DX Z (sc), vehicle: water 104 % of control | dose: 0.86 mg/kg/injection, schedule: Q## X Z (sc), vehicle: water 100 % of control | dose: 1.44 mg/kg/injection, schedule: Q02DX Z (sc), vehicle: water 109 % of control | dose: 1.44 mg/kg/injection, schedule: Q## X Z (sc), vehicle: water 109 % of control | dose: 2.4 mg/kg/injection, schedule: Q## X Z (sc), vehicle: water 104 % of control | dose: 3.11 mg/kg/injection, schedule: Q01DX Z (sc), vehicle: water 116 % of control | dose: 4.0 mg/kg/injection, schedule: Q02DX Z (sc), vehicle: water 118 % of control | dose: 4.0 mg/kg/injection, schedule: Q## X Z (sc), vehicle: water 113 % of control | dose: 5.18 mg/kg/injection, schedule: Q01DX Z (sc), vehicle: water 116 % of control | dose: 6.72 mg/kg/injection, schedule: Q## X Z (sc), vehicle: water 109 % of control | dose: 8.64 mg/kg/injection, schedule: Q01DX Z (sc), vehicle: water 100 % of control | dose: 10.0 mg/kg/injection, schedule: Q01DX Z (sc), vehicle: water 120 % of control | dose: 10.0 mg/kg/injection, schedule: Q## X Z (sc), vehicle: water 110 % of control | dose: 11.2 mg/kg/injection, schedule: Q## X Z (sc), vehicle: water 109 % of control | dose: 14.4 mg/kg/injection, schedule: Q01DX Z (sc), vehicle: water 104 % of control | dose: 17.0 mg/kg/injection, schedule: Q07DX Z (sc), vehicle: water 120 % of control | dose: 17.0 mg/kg/injection, schedule: Q## X Z (sc), vehicle: water 110 % of control | dose: 24.0 mg/kg/injection, schedule: Q01DX Z (sc), vehicle: water 100 % of control | dose: 28.0 mg/kg/injection, schedule: Q07DX Z (sc), vehicle: water 120 % of control | dose: 28.0 mg/kg/injection, schedule: Q## X Z (sc), vehicle: water 115 % of control | dose: 40.0 mg/kg/injection, schedule: Q01DX Z (sc), vehicle: water 100 % of control | dose: 47.0 mg/kg/injection, schedule: Q01DX001 (sc), vehicle: water 115 % of control | dose: 47.0 mg/kg/injection, schedule: Q07DX Z (sc), vehicle: water 110 % of control | dose: 47.0 mg/kg/injection, schedule: Q## X Z (sc), vehicle: water 110 % of control and 120 % of control | dose: 78.0 mg/kg/injection, schedule: Q01DX001 (sc), vehicle: water 120 % of control | dose: 78.0 mg/kg/injection, schedule: Q07DX Z (sc), vehicle: water 120 % of control | dose: 78.0 mg/kg/injection, schedule: Q## X Z (sc), vehicle: water 110 % of control and 120 % of control | dose: 130.0 mg/kg/injection, schedule: Q01DX001 (sc), vehicle: water 120 % of control | dose: 130.0 mg/kg/injection, schedule: Q07DX Z (sc), vehicle: water 120 % of control | dose: 216.0 mg/kg/injection, schedule: Q07DX Z (sc), vehicle: water 120 % of control | dose: 360.0 mg/kg/injection, schedule: Q07DX Z (sc), vehicle: water 120 % of control
active: dose: 0.78 mg/kg/injection, schedule: Q01DX Z (sc), vehicle: water 170 % of control | dose: 0.86 mg/kg/injection, schedule: Q01DX Z (sc), vehicle: water 155 % of control | dose: 1.3 mg/kg/injection, schedule: Q01DX Z (sc), vehicle: water 160 % of control | dose: 1.44 mg/kg/injection, schedule: Q01DX Z (sc), vehicle: water 150 % of control | dose: 2.16 mg/kg/injection, schedule: Q01DX Z (sc), vehicle: water 150 % of control | dose: 3.6 mg/kg/injection, schedule: Q01DX Z (sc), vehicle: water 150 % of control | dose: 6.72 mg/kg/injection, schedule: Q02DX Z (sc), vehicle: water 154 % of control | dose: 216.0 mg/kg/injection, schedule: Q## X Z (sc), vehicle: water 160 % of control

COc1cccc2c1C(=O)c1c(O)c3c(c(O)c1C2=O)CC(O)(C(C)=O)CC3OC1CC(N)C(O)C(C)O1 (stereo unspecified)
inactive: dose: 11.7 mg/kg/injection, schedule: Q04DX003 (ip), vehicle: saline 90 % of control | dose: 23.4 mg/kg/injection, schedule: Q04DX003 (ip), vehicle: saline 94 % of control | dose: 46.8 mg/kg/injection, schedule: Q04DX003 (ip), vehicle: saline 91 % of control | dose: 93.6 mg/kg/injection, schedule: Q04DX003 (ip), vehicle: saline 91 % of control | dose: 187.2 mg/kg/injection, schedule: Q04DX003 (ip), vehicle: saline 90 % of control
